In US9963464B2, “Macrocyclic compounds” (Bayer Pharma Aktiengesellschaft, priority 2014, dated 2018):
pIC50: −log10 of the molar value. Like-named read-outs stand apart in the source and are kept apart here.

Columns and labels:
[1] = tested on: HeLa-MaTu-ADR cells; assay: Proliferation assay HeLa-MaTu-ADR; format: cell-based, human; settings: 4 days, crystal violet, read-out: Inhibition of HeLa-MaTu-ADR cell proliferation IC50
Protocol: (§1) Cultivated tumour cells (HeLa, human cervical tumour cells, ATCC CCL-2; NCI-H460, human non-small cell lung carcinoma cells, ATCC HTB-177; A2780, human ovarian carcinoma cells, ECACC #93112519; DU 145, hormone-independent human prostate carcinoma cells, ATCC HTB-81; HeLa-MaTu-ADR, multidrug-resistant human cervical carcinoma cells, EPO-GmbH Berlin; Caco-2, human colorectal carcinoma cells, ATCC HTB-37; B16F10, mouse melanoma cells, ATCC CRL-6475) were plated at a density of 5,000 cells/well (DU145, HeLa-MaTu-ADR), 3,000 cells/well (NCI-H460, HeLa), 2,500 cells/well (A2780), 1,500 cells/well (Caco-2), or 1,000 cells/well (B16F10) in a 96-well multititer plate in 200 μL of their respective growth medium supplemented 10% fetal calf serum. After 24 hours, the cells of one plate (zero-point plate) were stained with crystal violet (see below), while the medium of the other plates was replaced by fresh culture medium (200 μl), to which the test substances were added in various concentrations (0 μM, as well as in the range of 0.001-10 μM). The cells were incubated for 4 days in the presence of test substances. Cell proliferation was determined by staining the cells with crystal violet: the cells were fixed by adding 20 μl/measuring point of an 11% glutaric aldehyde solution for 15 minutes at room temperature. After three washing cycles of the fixed cells with water, the plates were dried at room temperature. The cells were stained by adding 100 μl/measuring point of a 0.1% crystal violet solution (pH 3.0). After three washing cycles of the stained cells with water, the plates were dried at room temperature. The dye was dissolved by adding 100 μl/measuring point of a 10% acetic acid solution. The extinction was determined by photometry at a wavelength of 595 nm. The change of cell number, in percent, was calculated by normalization of the measured values to the extinction values of the zero-point plate (=0%) and the extinction of the untreated (0 μm) cells (=100%). The IC50 values (inhibitory concentration at 50% of maximal effect) were determined by means of a 4 parameter fit. Non-adherent MOLM-13 human acute myeloid leukemia cells (DSMZ ACC 554) were seeded at a density of 5,000 cells/well in a 96-well multititer plate in 100 μL of growth medium supplemented 10% fetal calf serum. After 24 hours, cell viability of one plate (zero-point plate) was determined with the Cell Titre-Glo Luminescent Cell Viability Assay (Promega), while 50 μL of test compound containing medium was added to the wells of the other plates (final concentrations in the range of 0.001-1 μM and DMSO controls). Cell viability was assessed after 72-hour exposure with the Cell Titre-Glo Luminescent Cell Viability Assay (Promega). IC50 values (inhibitory concentration at 50% of maximal effect) were determined by means of a 4 parameter fit on measurement data which were normalized to vehicle (DMSO) treated cells (=100%) and measurement readings taken immediately before compound exposure (=0%).

[2] = target: T1, CDK2/CycE (Homo sapiens, UniProt P24941); assay: CDK2/CycE kinase assay (TR-FRET, Method 2a); format: biochemical; settings: 10 μM ATP
T1 construct: GST; purchased ProQinase GmbH (Freiburg, Germany); host or cells: insect cells (Sf9)
Source text: 2a. CDK2/CycE Kinase Assay:
CDK2/CycE-inhibitory activity of compounds of the present invention was quantified employing the CDK2/CycE TR-FRET assay as described in the following paragraphs:
Recombinant fusion proteins of GST and human CDK2 and of GST and human CycE, expressed in insect cells (Sf9) and purified by Glutathion-Sepharose affinity chromatography, were purchased from ProQinase GmbH (Freiburg, Germany). As substrate for the kinase reaction biotinylated peptide biotin-Ttds-YISPLKSPYKISEG (C-terminus in amid form) was used which can be purchased e.g. from the company JERINI Peptide Technologies (Berlin, Germany).
For the assay 50 nl of a 100 fold concentrated solution of the test compound in DMSO was pipetted into a black low volume 384 well microtiter plate (Greiner Bio-One, Frickenhausen, Germany), 2 μl of a solution of CDK2/CycE in aqueous assay buffer [50 mM Tris/HCl pH 8.0, 10 mM MgCl2, 1.0 mM dithiothreitol, 0.1 mM sodium ortho-vanadate, 0.01% (v/v) Nonidet-P40 (Sigma)] were added and the mixture was incubated for 15 min at 22° C. to allow pre-binding of the test compounds to the enzyme before the start of the kinase reaction. […] The concentration of CDK2/CycE was adjusted depending of the activity of the enzyme lot and was chosen appropriate to have the assay in the linear range, typical concentrations were in the range of 130 ng/mL. The reaction was stopped by the addition of 5 μl of a solution of TR-FRET detection reagents (0.2 μM streptavidine-XL665 [Cisbio Bioassays, Codolet, France] and 1 nM anti-RB(pSer807/pSer811)-antibody from BD Pharmingen [#558389] and 1.2 nM LANCE EU-W1024 labeled anti-mouse IgG antibody [Perkin-Elmer, product no. AD0077]) in an aqueous EDTA-solution (100 mM EDTA, 0.2% (w/v) bovine serum albumin in 100 mM HEPES pH 7.5).
The resulting mixture was incubated 1 h at 22° C. to allow the formation of complex between the phosphorylated biotinylated peptide and the detection reagents. Subsequently the amount of phosphorylated substrate was evaluated by measurement of the resonance energy transfer from the Eu-chelate to the streptavidine-XL. Therefore, the fluorescence emissions at 620 nm and 665 nm after excitation at 350 nm was measured in a TR-FRET reader, e.g. a Rubystar (BMG Labtechnologies, Offenburg, Germany) or a Viewlux (Perkin-Elmer). The ratio of the emissions at 665 nm and at […] was taken as the measure for the amount of phosphorylated substrate. The data were normalised (enzyme reaction without inhibitor=0% inhibition, all other assay components but no enzyme=100% inhibition).

[3] = tested on: Caco-2 cells; assay: Proliferation assay Caco-2; format: cell-based, human; settings: 4 days, crystal violet, read-out: Inhibition of Caco-2 cell proliferation IC50
Protocol: as §1

[4] = tested on: DU145 cells; assay: Proliferation assay DU145; format: cell-based, human; settings: 4 days, crystal violet; read-out: Inhibition of DU145 cell proliferation IC50
Protocol: as §1

Compound | pIC50 ([1]; Homo sapiens, 96 h) | pIC50 [2] | pIC50 ([3]; Homo sapiens, Caco-2, 96 h) | pIC50 [4] | pIC50 [1] | pIC50 [3]
CS(=O)(Cc1cc2nc(c1)OCCCOc1cc(F)ccc1-c1cc(ncc1F)N2)=NS(=O)(=O)CCN (racemic) [Example 23, (rac)-2-amino-N-[{[15,19-difluoro-3,4-dihydro-2H,11H-10,6-(azeno)-12,16-(metheno)-1,5,11,13-benzodioxadiazacyclooctadecin-8-yl]methyl}(methyl)oxido-λ^6-sulfanylidene]ethanesulfonamide] | 6.40 | 7.52 | 6.37 | 6.08 | – | –
CS(=N)(=O)Cc1cc2nc(c1)OCCCOc1cc(F)ccc1-c1cc(ncc1F)N2 (single isomer, unassigned; enantiomer 2) [Example 7, 15,19-Difluoro-8-[(S-methylsulfonimidoyl)methyl]-3,4-dihydro-2H,11H-10,6-(azeno)-12,16-(metheno)-1,5,11,13-benzodioxadiazacyclooctadecine; Enantiomer 2] | – | 8.62 | – | 8.30 | 8.30 | 8.22
